Results published in US11116774B2, “Modulators of toll-like receptors for the treatment of HIV” (Gilead Sciences, Inc., priority 2014, dated 2021).
“And” between values parts separate entries of the source, which are not always exact repeats. Equal values may be shown once.

What was measured:
SIVmac251 = assay: TLR7 modulating compound in cART treated SIV+ rhesus with undetectable plasma viremia: plasma SIV RNA during dosing and after cART cessation (Example 204); assay type: in vivo, Indian rhesus macaques (Macaca mulatta); conditions: for Plasma SIV RNA: 0.3 mg/kg oral, on cART
Method: A group of 10 Indian rhesus macaques (Macaca mulatta) were treated with the compound of Example 4 or dosing vehicle of Example 201 (placebo group) in a multiple dose, dose escalation study. The macaques were infected with simian immunodeficiency virus (SIVmac251) by repeat low-dose rectal mucosal challenge. Beginning on day 65 post-infection, after establishment of peak viremia and an early viral chronic set point, the animals were treated with a the cART by sub-cutaneous injection at 1 mL/kg, the administration of which was for approximately one year. During the time of cART administration plasma viral loads decreased to undetectable levels (SIV gag RNA<50 copies/mL) by Day 168 post-infection, and were maintained for approximately 5 months prior to administration of the compound of Example 4 by use of daily cART. In addition, animals were maintained on the same cART regimen when dosed with the compound of Example 4. The amount of antiretrovirals administered to each animal, on a daily basis, in the cART formulation were 20 mg/kg tenofovir, 50 mg/kg emtricitibine (FTC), and 2.5 mg/kg dolutegravir. The animals were administered cART daily from approximately day 65 post-infection, through viral suppression and administration of the compound of Example 4 until approximately two weeks post-last dose of the compound from Example 4 at which time cART was stopped to monitor plasma viral load rebound kinetics.
Beginning on Day 317 post-infection, the animals were dosed once every other week with either the compound of Example 4 or dosing vehicle of Example 201 (placebo group). Four animals were dosed with the compound of Example 4, prepared as described in Example 201. The first week, 1 mL/kg of the 0.1 mg/mL formulation was dosed, corresponding to a dose of 0.1 mg/kg. The third week, 1 mL/kg of the 0.2 mg/mL formulation was dosed, corresponding to a dose of 0.2 mg/kg. On weeks five through thirteen, 1 mL/kg of the 0.3 mg/mL formulation was dosed, corresponding to a dose of 0.3 mg/kg (seven doses in total). The other six animals were controls, of which three were given seven doses of saline by oral gavage once every two weeks; the other three animals were left untreated. Approximately two weeks following the last dose of the compound of Example 4, cART was stopped in the three saline-dosed placebo animals and the four animals who had received the compound of Example 4. Approximately one month later, cART was stopped in the three untreated control animals. Following cART cessation viral loads were monitored for a period of six months.
Each formulation of the compound of Example 4 or dosing vehicle of Example 201 was thawed at room temperature prior to dosing. Animals were dosed by oral gavage via nasogastric tube.
Plasma viral loads (expressed as SIV RNA copies per mL of plasma) were determined by quantitative RT-PCR of the SIV RNA measuring the gag gene transcripts at various times throughout the study. Viral loads for each animal for each study day relative to time of administration of the first dose of the compound of Example 4 are depicted in FIG. 3; dosing days are shown by the arrows on the horizontal x-axis.
After two weeks following the last dose of study drug, cART therapy was also stopped in all dosed (placebo dosed included) animals. In the untreated control group of animals, cART was stopped 30 days later. Table 2 denotes the average viral load chronic set point from day 42-81 following cessation of cART for each of the animals in the study. […] However, when comparing the pre-cART plasma SIV RNA chronic set point to the post-cART cessation chronic set point within the animals administered the compound of Example 4 this was approximately ˜0.5 log10 lower (mean change for all animals treated with the compound of Example 4) than the change observed in those animals in the placebo group (mean change for all animals administered dosing vehicle of Example 201).

[1] = test system: peripheral CD4 lymphocytes (CD3+CD4+CD8−); assay: Peripheral lymphocyte activation, CD69 by flow cytometry: CD4 lymphocytes (Example 206); assay type: in vivo, rhesus macaque
Description: During the course of treatment with the compound of Example 4 as described in Example 204, peripheral lymphocyte activation was monitored in the groups dosed with the compound of Example 4 or the dosing vehicle of Example 201 (placebo), by measuring the expression of the early activation marker CD69 on various lymphocyte subsets by flow cytometry methodology. This methodology was used to quantify the percentage of immune cell subsets expressing the early activation marker. Standard data acquisition techniques were employed on a flow cytometer and by the use of antibodies conjugated to fluorescent molecules where the antibodies recognize rhesus macaque cell surface proteins on various immune cell subsets. In animals dosed with the compound of Example 4, whole blood samples were collected for each dose at various time points both at pre- and post-administration of compound. Total PBMCs were stained in the whole blood samples using antibodies that were chosen to be reactive to rhesus CD3, CD4, CD8, NKG2A, CD16 and CD56, each conjugated to different fluorescent probes to delineate CD3+CD4+CD8− lymphocytes, CD3+CD4−CD8+ lymphocytes and CD3-CD8+ NKG2A+CD16+ CD56+ NK cells. The flow cytometry data presented herein are from animals treated with the compound of Example 4.

[2] = test system: cytokines and chemokines in PBMCs from HIV-infected donors; assay: Induction of cytokines/chemokines ex vivo, Luminex (Example 211); assay type: cell-based, human; conditions: PBMC supernatant day 2
Method: PBMCs from HIV-infected donors on suppressive cART were isolated, as described previously, and immediately added to tissue culture plates pre-equilibrated at 37° C. with media containing DMSO or the compound of Example 49 (GS-9620) at concentrations from 0.1 nM or 10.0 uM. At day 2 after treatment, cell-free culture supernatants were collected and frozen at −80C for subsequent analysis. Frozen supernatants were thawed at room temperature, and the cytokines and chemokines indicated were quantitated with a custom multiplexed xMAP Luminex® assay following the manufacturer's instructions (Thermo Fisher Scientific Inc., Grand Island, N.Y., custom-designed kit).

SMILES: CCCCOc1nc(N)c2c(n1)N(Cc1ccc(CN3CCCC3)cc1)CC(=O)N2 [Example 4]
- Plasma SIV RNA (SIVmac251; Dose 4, 1 day post-dose): <50 copies/mL
- Plasma SIV RNA (SIVmac251; Dose 4, 3 days post-dose): <50 copies/mL
- Plasma SIV RNA (SIVmac251; Dose 4, 7 days post-dose): <50 copies/mL
- Plasma SIV RNA (SIVmac251; Dose 4, Pre): <50 copies/mL
- Plasma SIV RNA (SIVmac251; Dose 5, 2 days post-dose): 344 copies/mL and 361 copies/mL and 563 copies/mL and 623 copies/mL
- Plasma SIV RNA (SIVmac251; Dose 5, 7 days post-dose): <50 copies/mL
- Plasma SIV RNA (SIVmac251; Dose 5, Pre): <50 copies/mL
- Plasma SIV RNA (SIVmac251; Dose 6, 7 days post-dose): <50 copies/mL
- Plasma SIV RNA (SIVmac251; Dose 6, Pre): <50 copies/mL
- Plasma SIV RNA (SIVmac251; Dose 7, 7 days post-dose): <50 copies/mL
- Plasma SIV RNA (SIVmac251; Dose 7, Pre): <50 copies/mL
- time virus levels remained undetectable after the last dose (SIVmac251; SIV+ rhesus on cART): 13 days
- plasma virus levels returned to baseline prior to the following dose (SIVmac251; SIV+ rhesus on cART, 0.3 mg/kg doses): < 50 copies per mL
- time after dose at which detectable plasma virus was observed (SIVmac251; SIV+ rhesus on cART, after each of the last three doses at 0.3 mg/kg, oral, once every other week): 24 to 72 h
- pre-cART to post-cART cessation plasma SIV RNA chronic set point change, lower than the change in the placebo group (SIVmac251; mean change for all treated animals, set point day 42-81 following cessation of cART): ~0.5 log10
- Mean Change in Chronic Set Point (SIVmac251; mean of the four dosed animals): −1.26 -log10 copy/mL
- Plasma SIV RNA Chronic Set Point Day 42-81 Post-cART Cessation (SIVmac251; per animal, after seven doses (0.1, 0.2, 0.3 mg/kg) every other week): 3,553 copy/mL and 10,062 copy/mL and 20,146 copy/mL and 24,527 copy/mL
- Plasma SIV RNA Chronic Set Point Day 42-63 Pre-cART (SIVmac251; per animal, baseline before cART and before dosing): 237,667 copy/mL and 76,833 copy/mL and 156,333 copy/mL and 666,333 copy/mL
- Change in Chronic Set Point (SIVmac251; per animal, post-cART cessation versus pre-cART): −1.83 -log10 copy/mL and −0.88 -log10 copy/mL and −0.89 -log10 copy/mL and −1.43 -log10 copy/mL
- mean maximum percent change in CD69 expression on CD4 lymphocytes ([1]; all subsequent doses): 1.7%
- mean maximum percent change in CD69 expression on CD4 lymphocytes ([1]; dose 0.1 mg/kg, any time point (rise 24 to 72 hours post-dose), pre-dose range 0.5-1.7%): 1.1%
- mean maximum percent change in CD69 expression on CD4 lymphocytes ([1]; dose 0.2 mg/kg, pre-dose range 0.5-2%): 1.5%
- mean maximum percent change in CD69 expression on CD4 lymphocytes ([1]; first dose of 0.3 mg/kg, pre-dose range 0.6-2.5%): 2.3%

SMILES: CCCCOc1nc(N)c2c(n1)N(Cc1cccc(CN3CCCC3)c1)CC(=O)N2 [Example 49]
- BAFF fold induced vs. DMSO control [2]: <2-fold
- I-TAC fold induced vs. DMSO control [2]: >100-fold
- IFNα fold induced vs. DMSO control [2]: >100-fold
- IFNβ fold induced vs. DMSO control [2]: <2-fold
- IFNω fold induced vs. DMSO control [2]: >100-fold
- IL-1 RA fold induced vs. DMSO control [2]: >100-fold
- IL-4 fold induced vs. DMSO control [2]: <2-fold
- IL-5 fold induced vs. DMSO control [2]: <2-fold
- IL-6 fold induced vs. DMSO control [2]: >100-fold
- IL-10 fold induced vs. DMSO control [2]: >100-fold
- IL-12 (p70) fold induced vs. DMSO control [2]: <2-fold
- IL-13 fold induced vs. DMSO control [2]: <2-fold
- IL-17 fold induced vs. DMSO control [2]: <2-fold
- IL-18 fold induced vs. DMSO control [2]: <2-fold
- IL-27 fold induced vs. DMSO control [2]: <2-fold
- IL-31 fold induced vs. DMSO control [2]: <2-fold
- IP-10 fold induced vs. DMSO control [2]: >100-fold
- MCP-1 fold induced vs. DMSO control [2]: >100-fold
- MIP-1α fold induced vs. DMSO control [2]: >100-fold
- MIP-1β fold induced vs. DMSO control [2]: >100-fold
- MMP-1 fold induced vs. DMSO control [2]: <2-fold
- SCD40L fold induced vs. DMSO control [2]: <2-fold
- TNFS10 fold induced vs. DMSO control [2]: <2-fold
